Values after ≈ are worked out from the molar mass of the structure shown. Starred links: 1 amine or outer side, 2 acyl side, 3 side chain; linkers in the order of their positions; H or OH if unused. Positions of bridges follow the written chain, without caps; N, C: chain ends. Non-standard residues stand in square brackets, D forms with d. Residues, ends and D or L forms follow the SMILES beside them. *: point of attachment. pTerphenylCO(4''-OnC5H11) = CCCCCOc1ccc(-c2ccc(-c3ccc(C(=O)*)cc3)cc2)cc1; Orn(4R-OH,5R-OH) = O=C([C@H](C[C@@H](O)[C@@H](O)N[*:3])N[*:1])[*:2]; hTyr(3S-OH,4S-OH) = N[C@H](C(=O)O)[C@H](O)[C@@H](O)c1ccc(O)cc1; X1 = COP(=O)(O)Oc1ccc(C[C@@H](O)[C@H](N[*:1])C(=O)[*:2])cc1; Orn(4R-OH) = O=C([C@H](C[C@@H](O)CN[*:3])N[*:1])[*:2]; Pro(3S-OH,4S-Me) = C[C@H]1CN[C@H](C(=O)O)[C@H]1O; Hyp = O=C(O)[C@@H]1C[C@@H](O)CN1
Assays:
Candida albicans [1] = assay: In vitro antifungal activity against candida albicans after intraperitoneal administration of the compound; format: functional; details: ip
Candida albicans [2] = assay: In vitro antifungal activity against candida albicans; format: functional

CCCCCOc1ccc(-c2ccc(-c3ccc(C(=O)N[C@H]4C[C@@H](O)[C@@H](O)NC(=O)[C@@H]5[C@@H](O)[C@@H](C)CN5C(=O)[C@H]([C@@H](C)O)NC(=O)[C@H]([C@H](O)[C@@H](O)c5ccc(O)cc5)NC(=O)[C@@H]5C[C@@H](O)CN5C(=O)[C@H]([C@@H](C)O)NC4=O)cc3)cc2)cc1 [ANIDULAFUNGIN] ({pTerphenylCO(4''-OnC5H11)}-[Orn(4R-OH,5R-OH)]T[Hyp][hTyr(3S-OH,4S-OH)]T[Pro(3S-OH,4S-Me)]; lactam 1-C)
ED50 (Candida albicans [1]): 0.32 mg/kg | MIC (Candida albicans [2]): 0.01 µg/mL (≈ 0.00877 µM)

CCCCCOc1ccc(-c2ccc(-c3ccc(C(=O)N[C@H]4C[C@@H](O)CNC(=O)[C@@H]5[C@@H](O)[C@@H](C)CN5C(=O)[C@H]([C@@H](C)O)NC(=O)[C@H]([C@H](O)Cc5ccc(OP(=O)(O)OC)cc5)NC(=O)[C@@H]5C[C@@H](O)CN5C(=O)[C@H]([C@@H](C)O)NC4=O)cc3)cc2)cc1 ({pTerphenylCO(4''-OnC5H11)}-[Orn(4R-OH)]T[Hyp][X1]T[Pro(3S-OH,4S-Me)]; lactam 1-C)
ED50 (Candida albicans [1]): 0.47 mg/kg | MIC (Candida albicans [2]): 0.312 µg/mL (≈ 0.26 µM)

From ChEMBL document CHEMBL1131775, “The synthesis of water soluble prodrugs analogs of echinocandin B” (1999)
